Experimental data as given in patent publication US9085562B2, “6-alkyl-N-(pyridin-2-yl)-4-aryloxypicolinamide analogs as mGluR5 negative allosteric modulators and methods of making and using the same” (Vanderbilt University, priority 2011, dated 2015).

target: T1, rat mGluR5 (Rattus norvegicus, UniProt P31424); assay: mGluR5 calcium mobilization assay (HEK 293A cells, FDSS); type: cell-based; conditions: HEK cells transfected with rat mGluR5; antagonism of glutamate EC80 response; Table 1
T1 construct: expressed in transfected cells
Experimental: Human embryonic kidney (HEK) cells transfected with rat or human mGluR5 were plated in clear bottom assay plates for assay in a Functional Drug Screening System (FDSS). The cells were loaded with a Ca2+-sensitive fluorescent dye (e.g., Fluo-4), and the plates were washed and placed in the FDSS instrument. Test compound was applied to cells 3 seconds after baseline readings were taken. Cells were incubated with the test compounds for 140 seconds and then stimulated with an EC20 concentration of an mGluR5 agonist (e.g., glutamate, 3,5-dihydroxyphenylglycine, or quisqualate); 60-80 seconds later an EC80 concentration of agonist was added and readings taken for an additional 40 seconds. Data were collected at 1 Hz. […] Concentration response curves were generated using a four parameter logistical equation.
The above described assay was operated in two modes. In the first mode (utilizing a triple add protocol), a range of concentrations of the present compounds were added to cells, followed by two single fixed concentrations of agonist (EC20 followed by EC80). If a compound acted as a potentiator, an EC50 value for potentiation of the EC20 response and a maximum extent of potentiation by the compound at this concentration of agonist was determined by non-linear curve fitting. If a compound acted as an antagonist, an IC50 value for antagonism of the EC80 response and a maximum extent of antagonism by the compound at this concentration of agonist was determined by non-linear curve fitting. In the second mode (utilizing a double add protocol), several fixed concentrations of the present compounds were added to various wells on a plate, followed by a range of concentrations of agonist for each concentration of present compound; the EC50 values for the agonist at each concentration of compound were determined by nonlinear curve fitting. A decrease in the EC50 value of the agonist with increasing concentrations of the present compounds (a leftward shift of the agonist concentration-response curve) is an indication of the degree of mGluR5 positive allosteric modulation at a given concentration of the present compound. An increase in the EC50 value of the agonist with increasing concentrations of the present compounds (a rightward shift of the agonist concentration response curve) is an indication of the degree of mGluR5 antagonism at a given concentration of the present compound. The second mode also indicates whether the present compounds also affect the maximum response to mGluR5 to agonists.
The mGluR5 activity was determined using the metabotropic glutamate receptor activity assays in human embryonic kidney cells as described herein, wherein the human embryonic kidney cells were transfected with rat mGluR5. The mGluR5 activity data for some compounds are shown as the average of at least three experiments with the standard error in these cases. If no error is indicated for the mGluR5 activity, the values given represent the results from a single experiment or the average of two experiments. The compounds in Table 1 were synthesized with methods identical or analogous to those shown herein. The requisite starting materials were commercially available, described in the literature, or readily synthesized by one skilled in the art of organic synthesis.
The cells were grown overnight at 37° C. in the presence of 5% CO2. […] Dye was removed, 20 μL of assay buffer was added, and the plate was incubated for 10 minutes at room temperature.
Ca^2+ flux was measured using the Functional Drug Screening System (FDSS6000, Hamamatsu, Japan). After establishment of a fluorescence baseline for about 3 seconds, the compounds of the present invention were added to the cells, and the response in cells was measured.

T1 sequence (P31424 21-1171 isoform P31424-2 limits assumed): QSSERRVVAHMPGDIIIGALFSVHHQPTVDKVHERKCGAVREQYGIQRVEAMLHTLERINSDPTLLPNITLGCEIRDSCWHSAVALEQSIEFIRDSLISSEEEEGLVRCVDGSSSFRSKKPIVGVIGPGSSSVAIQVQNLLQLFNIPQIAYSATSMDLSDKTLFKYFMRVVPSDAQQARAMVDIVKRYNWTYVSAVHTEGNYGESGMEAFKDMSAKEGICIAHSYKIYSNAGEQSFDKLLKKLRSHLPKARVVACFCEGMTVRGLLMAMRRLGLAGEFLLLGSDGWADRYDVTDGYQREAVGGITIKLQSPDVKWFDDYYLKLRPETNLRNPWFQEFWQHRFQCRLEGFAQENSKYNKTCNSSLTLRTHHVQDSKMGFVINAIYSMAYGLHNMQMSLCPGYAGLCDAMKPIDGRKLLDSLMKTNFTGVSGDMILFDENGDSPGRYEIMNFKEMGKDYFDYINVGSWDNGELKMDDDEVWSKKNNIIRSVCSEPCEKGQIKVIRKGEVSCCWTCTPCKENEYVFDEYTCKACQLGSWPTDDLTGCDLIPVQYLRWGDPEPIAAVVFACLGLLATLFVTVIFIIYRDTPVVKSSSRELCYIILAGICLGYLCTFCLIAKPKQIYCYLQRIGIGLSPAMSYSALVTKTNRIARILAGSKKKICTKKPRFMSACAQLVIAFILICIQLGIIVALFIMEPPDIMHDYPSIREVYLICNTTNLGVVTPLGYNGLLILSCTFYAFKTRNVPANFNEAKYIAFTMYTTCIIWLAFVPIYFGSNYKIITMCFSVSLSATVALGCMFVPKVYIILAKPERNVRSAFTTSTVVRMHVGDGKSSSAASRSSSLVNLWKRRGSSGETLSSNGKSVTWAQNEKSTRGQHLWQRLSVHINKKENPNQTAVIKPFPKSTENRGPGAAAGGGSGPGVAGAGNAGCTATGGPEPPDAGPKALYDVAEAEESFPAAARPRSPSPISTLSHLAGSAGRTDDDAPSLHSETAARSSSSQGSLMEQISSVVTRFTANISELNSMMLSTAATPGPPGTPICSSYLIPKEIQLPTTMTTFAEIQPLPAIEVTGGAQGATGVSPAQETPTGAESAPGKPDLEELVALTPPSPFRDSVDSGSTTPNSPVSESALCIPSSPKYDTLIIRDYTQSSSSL

IC50 [µM]	SMILES
1.11	Cc1cc(Oc2cccnc2)cc(C(=O)Nc2ccc(C(F)(F)F)cn2)n1
0.014	Cc1cc(Oc2cncc(Cl)c2)cc(C(=O)Nc2ccc(F)c(C)n2)n1
0.014	CCc1cc(Oc2cncnc2)cc(C(=O)Nc2cccc(Cl)n2)n1
0.159	CCc1cc(Oc2cncc(F)c2)cc(C(=O)Nc2ccc(F)c(C)n2)n1
0.693	Cc1ccc(Oc2cc(C)nc(C(=O)Nc3ccc(C#N)cn3)c2)cn1
0.333	CCc1cc(Oc2cncc(F)c2)cc(C(=O)Nc2cc(F)ccn2)n1
> 10	Cc1cc(Oc2cncc(Cl)c2)cc(C(=O)Nc2ccc(C(F)(F)F)cn2)n1
> 30	Cc1ccc(Oc2cc(C)nc(C(=O)Nc3ccc(C(F)(F)F)cn3)c2)cn1
0.156	CCc1cc(Oc2cncnc2)cc(C(=O)Nc2ccc(C#N)cn2)n1
0.0067	Cc1cccc(NC(=O)c2cc(Oc3cncc(Cl)c3)cc(C)n2)n1
0.468	CCc1cccc(NC(=O)c2cc(Oc3cncc(F)c3)cc(CC)n2)n1
0.064	Cc1ccc(Oc2cc(C)nc(C(=O)Nc3cccc(F)n3)c2)cn1
0.013	CCc1cccc(NC(=O)c2cc(Oc3cccnc3)cc(C)n2)n1
0.0064	Cc1ccc(NC(=O)c2cc(Oc3cncc(Cl)c3)cc(C)n2)nc1
> 10	Cc1cc(Oc2cccnc2)cc(C(=O)Nc2cc(C#N)ccn2)n1
0.108	CCc1cc(Oc2cncc(F)c2)cc(C(=O)Nc2ccc(C#N)cn2)n1
0.255	Cc1cc(Oc2ccc(C(F)(F)F)nc2)cc(C(=O)Nc2ccc(F)cn2)n1

IC50 [µM]	SMILES
0.0034	Cc1cc(Oc2cccnc2)cc(C(=O)Nc2cccc(F)n2)n1
0.0041	Cc1cc(Oc2cccnc2)cc(C(=O)Nc2ccc(F)cn2)n1
0.041	CCc1cc(Oc2cncc(F)c2)cc(C(=O)Nc2ccc(C)cn2)n1
0.02	Cc1cccc(NC(=O)c2cc(Oc3cnc(C)nc3)cc(C)n2)n1
> 30	CCc1cc(Oc2cncc(F)c2)cc(C(=O)Nc2ccc(C(F)(F)F)cn2)n1
4.88	Cc1cc(Oc2ccc(C(F)(F)F)nc2)cc(C(=O)Nc2cc(F)ccn2)n1
0.635	Cc1ccc(Oc2cc(C)nc(C(=O)Nc3ccc(Cl)cn3)c2)cn1
0.072	Cc1ccc(NC(=O)c2cc(Oc3cncnc3)cc(C(F)F)n2)nc1
0.172	Cc1ccc(Oc2cc(C)nc(C(=O)Nc3cccc(Cl)n3)c2)cn1
0.013	Cc1ccc(Oc2cc(C)nc(C(=O)Nc3cccc(C)n3)c2)cn1
0.0093	CCc1cc(Oc2cncnc2)cc(C(=O)Nc2ccc(F)cn2)n1
0.0061	CCc1cc(Oc2cncnc2)cc(C(=O)Nc2cccc(C)n2)n1
0.0068	Cc1ccc(NC(=O)c2cc(Oc3cncc(F)c3)cc(C)n2)nc1
0.0054	Cc1cc(Oc2cncc(C#N)c2)cc(C(=O)Nc2ccc(F)cn2)n1
0.011	Cc1cc(Oc2cncc(Cl)c2)cc(C(=O)Nc2ccc(C#N)cn2)n1
0.014	Cc1cc(Oc2cncc(Cl)c2)cc(C(=O)Nc2cccc(Cl)n2)n1
0.024	CCc1cc(Oc2cncnc2)cc(C(=O)Nc2cccc(F)n2)n1

Second part, the compound before the results:

SMILES	IC50 [µM]
CCc1cc(Oc2cncc(F)c2)cc(C(=O)Nc2ccc(F)cn2)n1	0.011
Cc1cc(Oc2ccc(C(F)(F)F)nc2)cc(C(=O)Nc2ccc(Cl)cn2)n1	> 30
Cc1cc(Oc2cncc(F)c2)cc(C(=O)Nc2cccc(Cl)n2)n1	0.0082
CCc1cc(Oc2cncnc2)cc(C(=O)Nc2cc(C)c(F)cn2)n1	0.677
CCc1cc(Oc2cncc(F)c2)cc(C(=O)Nc2ccc(Cl)cn2)n1	0.333
Cc1ccc(Oc2cc(C)nc(C(=O)Nc3cc(C#N)ccn3)c2)cn1	0.387
CCc1cc(Oc2cncnc2)cc(C(=O)Nc2ccc(C)cn2)n1	0.027
Cc1cc(Oc2cncc(Cl)c2)cc(C(=O)Nc2ccc(Cl)cn2)n1	0.018
Cc1cc(Oc2cccnc2)cc(C(=O)Nc2ccc(Cl)cn2)n1	0.0055
CCc1cc(Oc2cncc(F)c2)cc(C(=O)Nc2cccc(F)n2)n1	0.018
Cc1cc(Oc2cnc(C)nc2)cc(C(=O)Nc2cccc(F)n2)n1	0.021
CCc1cc(Oc2cncc(F)c2)cc(C(=O)Nc2cc(C)c(F)cn2)n1	> 30
Cc1cc(Oc2cnc(C)nc2)cc(C(=O)Nc2cc(F)ccn2)n1	1.89
CCc1cccc(NC(=O)c2cc(Oc3ccc(C)nc3)cc(C)n2)n1	0.152
Cc1cc(Oc2cncc(Cl)c2)cc(C(=O)Nc2ccccn2)n1	0.0022
CCc1cc(Oc2cncnc2)cc(C(=O)Nc2ccc(C(F)(F)F)cn2)n1	> 30
Cc1ccc(NC(=O)c2cc(Oc3cccnc3)cc(C)n2)nc1	0.01
CCc1cccc(NC(=O)c2cc(Oc3cncnc3)cc(CC)n2)n1	0.019

SMILES	IC50 [µM]
Cc1cc(Oc2cncc(Cl)c2)cc(C(=O)Nc2cc(C#N)ccn2)n1	0.548
Cc1cc(Oc2cccnc2)cc(C(=O)Nc2cc(F)ccn2)n1	0.026
Cc1cc(Oc2cnc(C)nc2)cc(C(=O)Nc2ccc(Cl)cn2)n1	0.209
Cc1cccc(NC(=O)c2cc(Oc3cccnc3)cc(C)n2)n1	0.0044
Cc1cc(Oc2cccnc2)cc(C(=O)Nc2ccc(C#N)cn2)n1	0.014
CCc1cccc(NC(=O)c2cc(Oc3cncc(Cl)c3)cc(C)n2)n1	0.014
CCc1cc(Oc2cncnc2)cc(C(=O)Nc2ccc(Cl)cn2)n1	0.025
Cc1cc(Oc2ccc(C(F)(F)F)nc2)cc(C(=O)Nc2cccc(F)n2)n1	0.397
CCc1cc(Oc2cncnc2)cc(C(=O)Nc2ccc(F)c(C)n2)n1	0.027
CCc1cc(Oc2cncc(F)c2)cc(C(=O)Nc2cccc(Cl)n2)n1	0.059
Cc1ccc(Oc2cc(C)nc(C(=O)Nc3cc(F)ccn3)c2)cn1	1.8
Cc1cc(Oc2cncc(C#N)c2)cc(C(=O)Nc2cc(F)ccn2)n1	0.015
Cc1ccc(NC(=O)c2cc(Oc3ccc(C)nc3)cc(C)n2)nc1	0.966
Cc1cccc(NC(=O)c2cc(Oc3ccc(C(F)(F)F)nc3)cc(C)n2)n1	0.177
Cc1ccc(Oc2cc(C)nc(C(=O)Nc3ccc(F)c(C)n3)c2)cn1	0.328
CCc1cc(Oc2cncc(F)c2)cc(C(=O)Nc2cccc(C)n2)n1	0.013
Cc1cc(Oc2cncc(Cl)c2)cc(C(=O)Nc2cccc(F)n2)n1	0.0053

system: not listed separately; assay: Rat IV/PO pharmacokinetics; conditions: in vivo; Rat IV/PO
From the text: Additional physicochemical and pharmacological data are provided below in Tables 2-4 for Test Compounds 1 and 2 (Compounds […] and (2) as described herein).

bioavailability [%]	clearance [L/h/kg]	half-life [h]	SMILES
30 to 76	1.15	0.47	Cc1cc(Oc2cncnc2)cc(C(=O)Nc2ccc(F)cn2)n1 [drawing 265]
67 to 75	0.549	4.7	Cc1cc(Oc2cncc(F)c2)cc(C(=O)Nc2ccc(F)cn2)n1 [drawing 266]

same assay, conditions: in vivo; Rat IV/PO; read-out: Vss

Vd [L/kg]	SMILES
1.78	Cc1cc(Oc2cncnc2)cc(C(=O)Nc2ccc(F)cn2)n1 [drawing 265]
1.89	Cc1cc(Oc2cncc(F)c2)cc(C(=O)Nc2ccc(F)cn2)n1 [drawing 266]

same assay, conditions: in vivo; Rat PO

Cmax [µM]	Tmax [h]	SMILES
2.17	0.5	Cc1cc(Oc2cncnc2)cc(C(=O)Nc2ccc(F)cn2)n1 [drawing 265]
3.33	1.5	Cc1cc(Oc2cncc(F)c2)cc(C(=O)Nc2ccc(F)cn2)n1 [drawing 266]

system: not listed separately; assay: Cynomolgus monkey IV/PO pharmacokinetics; conditions: in vivo; Cynomolgus monkey IV/PO

bioavailability [%]	clearance [L/h/kg]	half-life [h]	SMILES
42 to 45	0.924	6.04	Cc1cc(Oc2cncnc2)cc(C(=O)Nc2ccc(F)cn2)n1 [drawing 267]
25 to 45	0.792	9.38	Cc1cc(Oc2cncc(F)c2)cc(C(=O)Nc2ccc(F)cn2)n1 [drawing 268]

same assay, conditions: in vivo; Cynomolgus monkey IV/PO; read-out: Vss

Vd [L/kg]	SMILES
2.5	Cc1cc(Oc2cncnc2)cc(C(=O)Nc2ccc(F)cn2)n1 [drawing 267]

same assay, conditions: in vivo; Cynomolgus monkey PO

Cmax [µM]	Tmax [h]	SMILES
0.858	3	Cc1cc(Oc2cncnc2)cc(C(=O)Nc2ccc(F)cn2)n1 [drawing 267]
1.36	2	Cc1cc(Oc2cncc(F)c2)cc(C(=O)Nc2ccc(F)cn2)n1 [drawing 268]

system: elevated plus maze; assay: Elevated plus maze; type: in vivo; conditions: 10 mg/kg
Experimental: Test compounds (1) and (2) were administrated at the 10 mg/kg and 30 mg/kg doses described in this figure. […] Prospective In Vivo Effects

SMILES	total distance traveled
Cc1cc(Oc2cncc(F)c2)cc(C(=O)Nc2ccc(F)cn2)n1 [Compound (1), N-(5-fluoropyridin-2-yl)-4-((5-fluoropyridin-3-yl)oxy)-6-methylpicolinamide]	statistically significant beneficial effect

same assay, conditions: 30 mg/kg

SMILES	total distance traveled
Cc1cc(Oc2cncc(F)c2)cc(C(=O)Nc2ccc(F)cn2)n1 [Compound (1), N-(5-fluoropyridin-2-yl)-4-((5-fluoropyridin-3-yl)oxy)-6-methylpicolinamide]	statistically significant beneficial effect
